Measurements taken from PMC11277489, “Novel Piperazine Derivatives of Vindoline as Anticancer Agents” (International Journal of Molecular Sciences, 2024).

Tests used:
SNB-19 = assay: NCI60 one-dose screen (10 μM), CNS Cancer; assay type: cell-based; details: Homo sapiens; 10 μM; SNB-19, CNS Cancer; read-out: Growth percent rate
HL-60(TB) = assay: NCI60 one-dose screen (10 μM), Leukemia; assay type: cell-based; details: Homo sapiens; 10 μM; HL-60(TB), Leukemia; read-out: Growth percent rate
EKVX = assay: NCI60 one-dose screen (10 μM), Non-small Cell Lung Cancer; assay type: cell-based; details: Homo sapiens, 10 μM, Non-small Cell Lung Cancer, read-out: Growth percent rate
HCC-2998 = assay: NCI60 one-dose screen (10 μM), Colon Cancer; assay type: cell-based; details: Homo sapiens; 10 μM; HCC-2998, Colon Cancer; read-out: Growth percent rate
A549/ATCC = assay: NCI60 one-dose screen (10 μM), Non-small Cell Lung Cancer; assay type: cell-based; details: Homo sapiens; 10 μM; A549/ATCC, Non-small Cell Lung Cancer; read-out: Growth percent rate
K-562 = assay: NCI60 one-dose screen (10 μM), Leukemia; assay type: cell-based; details: Homo sapiens, K562; 10 μM; K-562, Leukemia; read-out: Growth percent rate
TK-10 = assay: NCI60 one-dose screen (10 μM), Renal Cancer; assay type: cell-based; details: Homo sapiens; 10 μM; TK-10, Renal Cancer; read-out: Growth percent rate
U251 = assay: NCI60 one-dose screen (10 μM), CNS Cancer; assay type: cell-based; details: Homo sapiens, U-251; 10 μM; U251, CNS Cancer; read-out: Growth percent rate
SF-295 = assay: NCI60 one-dose screen (10 μM), CNS Cancer; assay type: cell-based; details: Homo sapiens; 10 μM; SF-295, CNS Cancer; read-out: Growth percent rate
RPMI-8226 = assay: NCI60 one-dose screen (10 μM), Leukemia; assay type: cell-based; details: Homo sapiens; 10 μM; RPMI-8226, Leukemia; read-out: Growth percent rate
HOP-62 = assay: NCI60 one-dose screen (10 μM), Non-small Cell Lung Cancer; assay type: cell-based; details: Homo sapiens; 10 μM; HOP-62, Non-small Cell Lung Cancer; read-out: Growth percent rate
SW-620 = assay: NCI60 one-dose screen (10 μM), Colon Cancer; assay type: cell-based; details: Homo sapiens; 10 μM; SW-620, Colon Cancer; read-out: Growth percent rate
SK-MEL-28 = assay: NCI60 one-dose screen (10 μM), Melanoma; assay type: cell-based; details: Homo sapiens; 10 μM; SK-MEL-28, Melanoma; read-out: Growth percent rate
A498 = assay: NCI60 one-dose screen (10 μM), Renal Cancer; assay type: cell-based; details: Homo sapiens; 10 μM; A498, Renal Cancer; read-out: Growth percent rate
OVCAR-8 = assay: NCI60 one-dose screen (10 μM), Ovarian Cancer; assay type: cell-based; details: Homo sapiens; 10 μM; OVCAR-8, Ovarian Cancer; read-out: Growth percent rate
[1] = system: 60 human tumor cell lines (NCI60); assay: NCI60 one-dose screen (10 μM), whole panel; assay type: cell-based; details: for activity at 10 µM: mean over 60 human cancer cell lines, read-out: Growth percent rate, Mean
SK-MEL-5 = assay: NCI60 one-dose screen (10 μM), Melanoma; assay type: cell-based, human; details: for activity at 10 µM: Homo sapiens, SK-MEL-5, Melanoma, read-out: Growth percent rate
HT29 = assay: NCI60 one-dose screen (10 μM), Colon Cancer; assay type: cell-based; details: Homo sapiens, HT-29; 10 μM; HT29, Colon Cancer; read-out: Growth percent rate
HCT-116 = assay: NCI60 one-dose screen (10 μM), Colon Cancer; assay type: cell-based; details: Homo sapiens; 10 μM; HCT-116, Colon Cancer; read-out: Growth percent rate
SN12C = assay: NCI60 one-dose screen (10 μM), Renal Cancer; assay type: cell-based; details: Homo sapiens, 10 μM, Renal Cancer, read-out: Growth percent rate
MDA-MB-435 = assay: NCI60 one-dose screen (10 μM), Melanoma; assay type: cell-based; details: Homo sapiens; 10 μM; MDA-MB-435, Melanoma; read-out: Growth percent rate
IGROV1 = assay: NCI60 one-dose screen (10 μM), Ovarian Cancer; assay type: cell-based; details: Homo sapiens, IGROV-1; 10 μM; IGROV1, Ovarian Cancer; read-out: Growth percent rate
NCI-H460 = assay: NCI60 one-dose screen (10 μM), Non-small Cell Lung Cancer; assay type: cell-based; details: Homo sapiens; 10 μM; NCI-H460, Non-small Cell Lung Cancer; read-out: Growth percent rate
MOLT-4 = assay: NCI60 one-dose screen (10 μM), Leukemia; assay type: cell-based, human; details: Homo sapiens; 10 μM; MOLT-4, Leukemia; read-out: Growth percent rate
NCI-H322M = assay: NCI60 one-dose screen (10 μM), Non-small Cell Lung Cancer; assay type: cell-based; details: Homo sapiens, 10 μM, Non-small Cell Lung Cancer, read-out: Growth percent rate
HCT-15 = assay: NCI60 one-dose screen (10 μM), Colon Cancer; assay type: cell-based; details: Homo sapiens; 10 μM; HCT-15, Colon Cancer; read-out: Growth percent rate
NCI-H23 = assay: NCI60 one-dose screen (10 μM), Non-small Cell Lung Cancer; assay type: cell-based; details: Homo sapiens; 10 μM; NCI-H23, Non-small Cell Lung Cancer; read-out: Growth percent rate
786–0 = assay: NCI60 one-dose screen (10 μM), Renal Cancer; assay type: cell-based; details: Homo sapiens; 10 μM; 786-0, Renal Cancer; read-out: Growth percent rate
COLO 205 = assay: NCI60 one-dose screen (10 μM), Colon Cancer; assay type: cell-based, human; details: Homo sapiens; 10 μM; COLO 205, Colon Cancer; read-out: Growth percent rate
SF-539 = assay: NCI60 one-dose screen (10 μM), CNS Cancer; assay type: cell-based, human; details: for activity at 10 µM: Homo sapiens, SF-539, CNS Cancer, read-out: Growth percent rate
HS 578T = assay: NCI60 one-dose screen (10 μM), Breast Cancer; assay type: cell-based; details: Homo sapiens; 10 μM; HS 578T, Breast Cancer; read-out: Growth percent rate
NCI-H522 = assay: NCI60 one-dose screen (10 μM), Non-small Cell Lung Cancer; assay type: cell-based; details: Homo sapiens; 10 μM; NCI-H522, Non-small Cell Lung Cancer; read-out: Growth percent rate
OVCAR-4 = assay: NCI60 one-dose screen (10 μM), Ovarian Cancer; assay type: cell-based; details: Homo sapiens; 10 μM; OVCAR-4, Ovarian Cancer; read-out: Growth percent rate
M14 = assay: NCI60 one-dose screen (10 μM), Melanoma; assay type: cell-based; details: Homo sapiens; 10 μM; M14, Melanoma; read-out: Growth percent rate
RXF 393 = assay: NCI60 one-dose screen (10 μM), Renal Cancer; assay type: cell-based, human; details: Homo sapiens; 10 μM; RXF 393, Renal Cancer; read-out: Growth percent rate
UACC-257 = assay: NCI60 one-dose screen (10 μM), Melanoma; assay type: cell-based; details: Homo sapiens; 10 μM; UACC-257, Melanoma; read-out: Growth percent rate
SF-268 = assay: NCI60 one-dose screen (10 μM), CNS Cancer; assay type: cell-based; details: Homo sapiens; 10 μM; SF-268, CNS Cancer; read-out: Growth percent rate
ACHN = assay: NCI60 one-dose screen (10 μM), Renal Cancer; assay type: cell-based; details: Homo sapiens, 10 μM, Renal Cancer, read-out: Growth percent rate
MCF7 = assay: NCI60 one-dose screen (10 μM), Breast Cancer; assay type: cell-based; details: Homo sapiens; 10 μM; MCF7, Breast Cancer; read-out: Growth percent rate
CAKI-1 = assay: NCI60 one-dose screen (10 μM), Renal Cancer; assay type: cell-based; details: Homo sapiens; 10 μM; CAKI-1, Renal Cancer; read-out: Growth percent rate
LOX IMVI = assay: NCI60 one-dose screen (10 μM), Melanoma; assay type: cell-based, human; details: for activity at 10 µM: Homo sapiens, LOX IMVI, Melanoma, read-out: Growth percent rate
MALME-3M = assay: NCI60 one-dose screen (10 μM), Melanoma; assay type: cell-based; details: Homo sapiens; 10 μM; MALME-3M, Melanoma; read-out: Growth percent rate

In the case of CCC12C=CCN3CCC4(c5cc(NC(=O)CN6CCN(C)CC6)c(OC)cc5N(C)C4C(O)(C(=O)OC)C1OC(C)=O)C32 (stereo not shown) [Compound 16], the activity at 10 µM (SNB-19) is reported as 105%, the activity at 10 µM (HL-60(TB)) is reported as 97.5% and the activity at 10 µM (EKVX) is reported as 94.8%. For the same compound, the activity at 10 µM (HCC-2998) was 106%, the activity at 10 µM (A549/ATCC) was 97.1% and the activity at 10 µM (K-562) was 85.8%. It also gave an activity at 10 µM (TK-10) of 103%, an activity at 10 µM (U251) of 97.4% and an activity at 10 µM (SF-295) of 98.8%. It also gave an activity at 10 µM (RPMI-8226) of 102%, an activity at 10 µM (HOP-62) of 104% and an activity at 10 µM (SW-620) of 124%. The activity at 10 µM (SK-MEL-28) was 111%, the activity at 10 µM (A498) was 158% and the activity at 10 µM (OVCAR-8) was 97.8%. The activity at 10 µM [1] was 103%, the activity at 10 µM (SK-MEL-5) was 102% and the activity at 10 µM (HT29) was 104%. It also gave an activity at 10 µM (HCT-116) of 101%, an activity at 10 µM (SN12C) of 109% and an activity at 10 µM (MDA-MB-435) of 114%. For the same compound, the activity at 10 µM (IGROV1) was 112%, the activity at 10 µM (NCI-H460) was 142% and the activity at 10 µM (MOLT-4) was 108%. For the same compound, the activity at 10 µM (NCI-H322M) was 101%, the activity at 10 µM (HCT-15) was 101% and the activity at 10 µM (NCI-H23) was 103%. The activity at 10 µM (786–0) was 106%, the activity at 10 µM (COLO 205) was 105% and the activity at 10 µM (SF-539) was 101%. The activity at 10 µM (HS 578T) was 111%, the activity at 10 µM (NCI-H522) was 90.2% and the activity at 10 µM (OVCAR-4) was 109%. For the same compound, the activity at 10 µM (M14) was 101%, the activity at 10 µM (RXF 393) was 102% and the activity at 10 µM (UACC-257) was -7.95%. The activity at 10 µM (SF-268) was 116%, the activity at 10 µM (ACHN) was 104% and the activity at 10 µM (MCF7) was 84.3%. The activity at 10 µM (CAKI-1) was 89.5%, the activity at 10 µM (LOX IMVI) was 95.2% and the activity at 10 µM (MALME-3M) was 97.5%.
CCC12C=CCN3CCC4(c5cc(NC(=O)CN6CCN(c7ccc(C(F)(F)F)cc7)CC6)c(OC)cc5N(C)C4C(O)(C(=O)OC)C1OC(C)=O)C32 (stereo not shown) [Compound 17] gave an activity at 10 µM (SNB-19) of 18.4%, an activity at 10 µM (HL-60(TB)) of 1.98% and an activity at 10 µM (EKVX) of 21.3%. It also gave an activity at 10 µM (HCC-2998) of -69.9%, an activity at 10 µM (A549/ATCC) of 20.3% and an activity at 10 µM (K-562) of 11.4%. The activity at 10 µM (TK-10) was 33.4%, the activity at 10 µM (U251) was 7.24% and the activity at 10 µM (SF-295) was -70.2%. It also gave an activity at 10 µM (RPMI-8226) of -14.1%, an activity at 10 µM (HOP-62) of -38.8% and an activity at 10 µM (SW-620) of 1.45%. The activity at 10 µM (SK-MEL-28) was -67.6%, the activity at 10 µM (A498) was -9.05% and the activity at 10 µM (OVCAR-8) was 26.3%. For the same compound, the “antiproliferative effect (in words)” value ([1]; 10 μM one-dose, NCI60) was “highly effective in several types of cancer”, the activity at 10 µM [1] was -24.7% and the growth percent rate (SK-MEL-5; 10 μM one-dose, SK-MEL-5 melanoma, negative = lethality) was −98.17%. It also gave an activity at 10 µM (SK-MEL-5) of -98.2%, an activity at 10 µM (HT29) of -68.8% and an activity at 10 µM (HCT-116) of 0.31%. For the same compound, the activity at 10 µM (SN12C) was -17%, the activity at 10 µM (MDA-MB-435) was -79.8% and the activity at 10 µM (IGROV1) was 12.7%. The activity at 10 µM (NCI-H460) was 9.27%, the activity at 10 µM (MOLT-4) was 8.66% and the activity at 10 µM (NCI-H322M) was 39.1%. The activity at 10 µM (HCT-15) was -56.5%, the activity at 10 µM (NCI-H23) was 15.2% and the activity at 10 µM (786–0) was 24.8%. For the same compound, the activity at 10 µM (COLO 205) was -74.5%, the growth percent rate (SF-539; 10 μM one-dose, SF-539 CNS cancer, negative = lethality) was less than −80% and the activity at 10 µM (SF-539) was -83.4%. It also gave an activity at 10 µM (HS 578T) of -3.36%, an activity at 10 µM (NCI-H522) of -24.4% and an activity at 10 µM (OVCAR-4) of 20.4%. It also gave an activity at 10 µM (M14) of -31.1%, an activity at 10 µM (RXF 393) of -36.5% and an activity at 10 µM (UACC-257) of -65.3%. It also gave an activity at 10 µM (SF-268) of -6.14%, an activity at 10 µM (ACHN) of 3.15% and an activity at 10 µM (MCF7) of 0.95%. For the same compound, the activity at 10 µM (CAKI-1) was 10.8%, the growth percent rate (LOX IMVI; 10 μM one-dose, LOX-IMVI melanoma, negative = lethality) was −95.37% and the activity at 10 µM (LOX IMVI) was -95.4%. The activity at 10 µM (MALME-3M) was -89.5%.
